The text below walks through data of US12187713B2, “Immunomodulators, compositions and methods thereof” (Betta Pharmaceuticals Co., Ltd, priority 2019, dated 2025).

The target of series [1] is PD-1/PD-L1 (Homo sapiens (Human), UniProt Q9NZQ7). The series can be described thus: PD-1/PD-L1 Binding Assay (Alphascreen). The essentials:
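PD-1/PD-L1 binding detected by anti-6×His acceptor and streptavidin donor beads after 120 min in the dark at 25 °C. Beforehand, the two proteins were incubated 15 min at 25 °C with inhibitor at 0.015–300 nM (1% DMSO). IC50 comes from a log concentration–response curve.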
(Bead proximity is the source of the signal in Alpha formats.)

Series [2] in a line: Pharmacokinetic Assay, single oral dose 100 mg/kg (Table 11). Type of series: in vivo. To be noted: mouse, C57 female mice, oral (intragastric), plasma. As for the experimental part: Adult C57 female mice were received to single-dose of the test compounds with […], 10% Kolliphor^@HS 15 and 80% saline as excipients, the mice (n=9) were giving oral administration (intragastric administration) with the compounds at a dose of 100 mg/kg. Time of blood collection: 15 min, 30 min, 1 h, 2 h, 4 h, 7 h, 24 h. Approximately 0.1 mL of whole blood was collected from retro-orbital venous plexus of 3 mice at each time point, and placed into tubes that contained K2-EDTA as an anticoagulant. The whole blood was centrifuged at 4° C. and 4000 rpm for 10 min. The plasma was transferred into centrifuge tubes, and stored at −20° C. until being analyzed. Concentrations of test compounds in the plasma samples were analyzed with liquid chromatography-tandem mass spectrometry (LC-MS/MS). Plasma concentration-time data of individual animals was analyzed using Microsoft Excel 2010. Non-compartmental model was introduced in concentration analysis. The pharmacokinetic parameters of the test compounds were calculated using WinNonlin (version 4.1; Pharsight) software.

Series [3] can be described thus: Pharmacokinetic Assay, single oral dose 5 mg/kg (Table 12). It counts as in vivo. The note with it: mouse, plasma concentration, C57 female mice, single oral dose 5 mg/kg. The procedure, abridged: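 Adult female C57 mice (n=3) got one intragastric dose of 5 mg/kg in 15% DMSO, 10% Kolliphor HS 15, 75% saline. Retro-orbital blood was taken at 30 min, 2 h and 4 h into K2-EDTA. Plasma levels were measured by LC-MS/MS.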

The structures appear in SMILES notation. pIC50: −log10 of the molar value. Some results are limits rather than exact numbers.

PD-1/PD-L1, sequence (Q9NZQ7 19-238): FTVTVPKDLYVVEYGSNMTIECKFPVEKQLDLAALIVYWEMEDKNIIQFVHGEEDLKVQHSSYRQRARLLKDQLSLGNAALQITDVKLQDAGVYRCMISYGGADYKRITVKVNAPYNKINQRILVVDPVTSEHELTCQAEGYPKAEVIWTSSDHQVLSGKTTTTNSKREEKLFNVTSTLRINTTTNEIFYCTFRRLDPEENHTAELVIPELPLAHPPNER

As usually defined, the pIC50 is the IC50 on a negative log10 scale, so that one unit is a factor of ten. A word on the AUC: it is concentration integrated over time. Lower therefore signals low exposure. The term Cmax denotes the peak of the concentration-time curve. Broadly, the Tmax is the time from dosing to the highest level. As a reminder, the half-life is how long it takes for the measured level to halve. A higher half-life goes with slow loss. As for `Cc1c(-c2nc3cc(CN4CCC[C@H]4C(=O)O)c(OC(F)F)cc3o2)cccc1-c1cccc(-c2nc3cc(CN4CCCC4)cc(C(F)(F)F)c3o2)c1C` [Example 100, ((6-(difluoromethoxy)-2-(2,2′-dimethyl-3′-(5-(pyrrolidin-1-ylmethyl)-7-(trifluoromethyl)benzo[d]oxazol-2-yl)-[1,1′-biphenyl]-3-yl)benzo[d]oxazol-5-yl)methyl)-L-proline], the pIC50 in series [1] (range symbols) was 8.30 to 10.00. Also, in series [2], the AUC was 235 µg·h/mL, the Cmax worked out at 18900 ng/mL, the Tmax amounted to 4 h and the half-life is 10.5 h.

In series [1] (range symbols), `C=C1CN(Cc2cc3nc(-c4cccc(-c5cccc(-c6nc7cc(CN8CCC[C@H]8C(=O)O)c(OC(F)F)cc7o6)c5C)c4C)oc3cc2OC(F)F)C1` [Example 81, ((6-(difluoromethoxy)-2-(3′-(6-(difluoromethoxy)-5-((3-methyleneazetidin-1-yl)methyl)benzo[d]oxazol-2-yl)-2,2′-dimethyl-[1,1′-biphenyl]-3-yl)benzo[d]oxazol-5-yl)methyl)-L-proline] showed a pIC50 of 7.30 to 8.30. In series [3], the concentration at 0.5 h was determined as 115 ng/mL, the concentration at 2 h turned out to be 468 ng/mL and the concentration at 4 h was 383 ng/mL.

`COc1nc(-c2cccc(-c3cccc(-c4nc5cc(CN6CCC[C@H]6C(=O)O)c(OC(F)F)cc5o4)c3C)c2C)cnc1CN1CCCC1` [Example 285, ((6-(difluoromethoxy)-2-(3′-(6-methoxy-5-(pyrrolidin-1-ylmethyl)pyrazin-2-yl)-2,2′-dimethyl-[1,1′-biphenyl]-3-yl)benzo[d]oxazol-5-yl)methyl)-L-proline]: the pIC50 in series [1] (range symbols) was 8.30 to 10.00. In series [3], this molecule gave a concentration at 0.5 h of 39.1 ng/mL, a concentration at 2 h of 80 ng/mL and a concentration at 4 h of 41.8 ng/mL.

Molecule `Cc1c(-c2nc3cc(CN4CCC[C@H]4C(=O)O)c(OC(F)F)cc3o2)cccc1-c1cccc(-c2nc3cc(CN4CCCC4)c(F)c(F)c3o2)c1C` [Example 102, ((2-(3′-(6,7-difluoro-5-(pyrrolidin-1-ylmethyl)benzo[d]oxazol-2-yl)-2,2′-dimethyl-[1,1′-biphenyl]-3-yl)-6-(difluoromethoxy)benzo[d]oxazol-5-yl)methyl)-L-proline] gave a pIC50 in series [1] (numeric values) of 7.74. In addition, in series [3], the concentration at 0.5 h is 85.9 ng/mL, the concentration at 2 h came to 282 ng/mL and the concentration at 4 h was determined as 292 ng/mL.

`Cc1c(-c2nc3cc(CN4C[C@@H](F)[C@H](F)C4)c(OC(F)F)cc3o2)cccc1-c1cccc(-c2nc3cc(CN4CCC[C@H]4C(=O)O)c(OC(F)F)cc3o2)c1C` [Example 18, ((6-(difluoromethoxy)-2-(3′-(6-(difluoromethoxy)-5-(((3R,4R)-3,4-difluoropyrrolidin-1-yl)methyl)benzo[d]oxazol-2-yl)-2,2′-dimethyl-[1,1′-biphenyl]-3-yl)benzo[d]oxazol-5-yl)methyl)-L-proline] showed a pIC50 in series [1] (numeric values) of 6.79. Moreover, in series [3], the concentration at 0.5 h was determined as 303 ng/mL, the concentration at 2 h came to 642 ng/mL and the concentration at 4 h was 626 ng/mL.

In series [1] (range symbols), `Cc1c(-c2nc3c(o2)CCN(CC2CCO2)C3)cccc1-c1cccc(-c2nc3cc(CN4CCC[C@H]4C(=O)O)c(OC(F)F)cc3o2)c1C` (stereo partly shown) [Example 192, ((6-(difluoromethoxy)-2-(2,2′-dimethyl-3′-(5-(oxetan-2-ylmethyl)-4,5,6,7-tetrahydrooxazolo[4,5-c]pyridin-2-yl)-[1,1′-biphenyl]-3-yl)benzo[d]oxazol-5-yl)methyl)proline] had a pIC50 of 7.30 to 8.30. In addition, in series [3], the concentration at 0.5 h came out at 469 ng/mL, the concentration at 2 h came to 440 ng/mL and the concentration at 4 h came out at 268 ng/mL.

In series [1] (range symbols), `CCS(=O)(=O)N1CCc2oc(-c3cccc(-c4cccc(-c5nc6cc(CN7CCC[C@H]7C(=O)O)c(OC(F)F)cc6o5)c4C)c3C)nc2C1` [Example 197, ((6-(difluoromethoxy)-2-(3′-(5-(ethylsulfonyl)-4,5,6,7-tetrahydrooxazolo[4,5-c]pyridin-2-yl)-2,2′-dimethyl-[1,1′-biphenyl]-3-yl)benzo[d]oxazol-5-yl)methyl)proline] had a pIC50 of 7.30 to 8.30. Further, in series [3], the concentration at 0.5 h is 527 ng/mL, the concentration at 2 h was determined as 741 ng/mL and the concentration at 4 h came to 369 ng/mL.

The molecule `Cc1c(-c2ccc(CN3CC(C)(C)C3)c(F)c2)cccc1-c1cccc(-c2nc3cc(CN4CCC[C@H]4C(=O)O)c(OC(F)F)cc3o2)c1C` [Example 237, ((6-(difluoromethoxy)-2-(4″-((3,3-dimethylazetidin-1-yl)methyl)-3″-fluoro-2,2′-dimethyl-[1,1′:3′,1″-terphenyl]-3-yl)benzo[d]oxazol-5-yl)methyl)-L-proline] had a pIC50 in series [1] (numeric values) of 8.57. In series [3], this molecule yielded a concentration at 0.5 h of 58.5 ng/mL, a concentration at 2 h of 178 ng/mL and a concentration at 4 h of 186 ng/mL.

In series [1] (numeric values), `Cc1c(-c2nc3cc(CN4CCOCC4)c(OC(F)F)cc3o2)cccc1-c1cccc(-c2nc3cc(CN4CCC[C@H]4C(=O)O)c(OC(F)F)cc3o2)c1C` [Example 13, ((6-(difluoromethoxy)-2-(3′-(6-(difluoromethoxy)-5-(morpholinomethyl)benzo[d]oxazol-2-yl)-2,2′-dimethyl-[1,1′-biphenyl]-3-yl)benzo[d]oxazol-5-yl)methyl)-L-proline] had a pIC50 of 7.59. Further, in series [3], the concentration at 0.5 h came to 79.3 ng/mL, the concentration at 2 h was determined as 241 ng/mL and the concentration at 4 h was 301 ng/mL.

On to `COc1nc(-c2cccc(-c3cccc(-c4nc5cc(CN6CCC[C@H]6C(=O)O)c(OC(F)F)cc5o4)c3C)c2C)ccc1CN1CC[C@@H](C)C1` [Example 272, ((6-(difluoromethoxy)-2-(3′-(6-methoxy-5-(((R)-3-methylpyrrolidin-1-yl)methyl)pyridin-2-yl)-2,2′-dimethyl-[1,1′-biphenyl]-3-yl)benzo[d]oxazol-5-yl)methyl)-L-proline], for which, in series [1] (numeric values), the pIC50 was 8.72. In series [3], this molecule yielded a concentration at 0.5 h of 66.1 ng/mL, a concentration at 2 h of 198 ng/mL and a concentration at 4 h of 141 ng/mL.

`Cc1c(-c2nc3c(o2)CCN(CC(F)F)C3)cccc1-c1cccc(-c2nc3cc(CN4CCC[C@H]4C(=O)O)c(OC(F)F)cc3o2)c1C` [Example 201, ((2-(3′-(5-(2,2-difluoroethyl)-4,5,6,7-tetrahydrooxazolo[4,5-c]pyridin-2-yl)-2,2′-dimethyl-[1,1′-biphenyl]-3-yl)-6-(difluoromethoxy)benzo[d]oxazol-5-yl)methyl)proline]: in series [1] (range symbols), the pIC50 was below 7.30. In series [3], this molecule had a concentration at 0.5 h of 428 ng/mL, a concentration at 2 h of 792 ng/mL and a concentration at 4 h of 527 ng/mL.

`Cc1c(-c2nc3cc(CN4CCC[C@H]4C(=O)O)c(OC(F)F)cc3o2)cccc1-c1cccc(-c2nc3cc(CN4CC(F)C(F)C4)cc(C#N)c3o2)c1C` (stereo partly drawn) [Example 164, ((2-(3′-(7-cyano-5-((3,4-difluoropyrrolidin-1-yl)methyl)benzo [d]oxazol-2-yl)-2,2′-dimethyl-[1,1′-biphenyl]-3-yl)-6-(difluoromethoxy)benzo[d]oxazol-5-yl)methyl)-L-proline] showed a pIC50 in series [1] (range symbols) of 7.30 to 8.30. In series [3], this molecule returned a concentration at 0.5 h of 294 ng/mL, a concentration at 2 h of 877 ng/mL and a concentration at 4 h of 853 ng/mL.

Consider `COc1c(-c2nc3cc(CN4CCCC4)c(F)c(F)c3o2)cccc1-c1cccc(-c2nc3cc(CN4CCC[C@H]4C(=O)O)c(OC(F)F)cc3o2)c1C` [Example 117, ((2-(3′-(6,7-difluoro-5-(pyrrolidin-1-ylmethyl)benzo[d]oxazol-2-yl)-2′-methoxy-2-methyl-[1,1′-biphenyl]-3-yl)-6-(difluoromethoxy)benzo[d]oxazol-5-yl)methyl)-L-proline], for which the pIC50 in series [1] (range symbols) was 8.30 to 10.00. In series [3], the concentration at 0.5 h was 121 ng/mL, the concentration at 2 h was 319 ng/mL and the concentration at 4 h came out at 243 ng/mL.

Consider `Cc1c(-c2nc3c(o2)CCN(CC#N)C3)cccc1-c1cccc(-c2nc3cc(CN4CCC[C@H]4C(=O)O)c(OC(F)F)cc3o2)c1C` [Example 195, ((2-(3′-(5-(cyanomethyl)-4,5,6,7-tetrahydrooxazolo[4,5-c]pyridin-2-yl)-2,2′-dimethyl-[1,1′-biphenyl]-3-yl)-6-(difluoromethoxy)benzo[d]oxazol-5-yl)methyl)proline], for which, in series [1] (range symbols), the pIC50 is 7.30 to 8.30. Besides, in series [3], the concentration at 0.5 h was 256 ng/mL, the concentration at 2 h came out at 255 ng/mL and the concentration at 4 h was 125 ng/mL.

As to `COc1nc(-c2cccc(-c3cccc(-c4nc5cc(CN6CCC[C@H]6C(=O)O)c(OC(F)F)cc5o4)c3C)c2C)cnc1CN1CC[C@@H](C)C1` [Example 286, ((6-(difluoromethoxy)-2-(3′-(6-methoxy-5-(((R)-3-methylpyrrolidin-1-yl)methyl)pyrazin-2-yl)-2,2′-dimethyl-[1,1′-biphenyl]-3-yl)benzo[d]oxazol-5-yl)methyl)-L-proline], in series [1] (range symbols), the pIC50 was 8.30 to 10.00. In series [3], this molecule yielded a concentration at 0.5 h of 20.5 ng/mL, a concentration at 2 h of 73.8 ng/mL and a concentration at 4 h of 52.2 ng/mL.
